Data taken from patent publication EP4345091A1, “BENZOIC ACID DERIVATIVES, METHODS AND USES THEREOF” (priority 2022, dated 2024).
In brackets after ≈: the same amount, converted by molar mass. Like-named read-outs stand apart in the source and are kept apart here.

Assays:
[1] = test system: Mycobacterium tuberculosis H37Rv; test: MIC and MBC by broth microdilution against M. tuberculosis H37Rv; type: cell-based, Mycobacterium tuberculosis H37Rv (ATCC 27294); conditions: Mycobacterium tuberculosis, H37RV
[2] = Cytotoxicity assay in THP-1 cells; type: cell-based, human; conditions: human, THP-1 cells, read-out: LC50 (the source's name)
Source text: (§1) Cytotoxicity results were obtained through lethal concentration for 50% of the cell population, LC50. Table 6. Results obtained from cytotoxicity assays for the esters, represented by LD50 in µg/mL and comparison with MIC values, in µg/mL with toxicity/activity (T/A) index.
(§2) The T/A index quantitatively is the ratio between the lethal concentration (LC50) given by the minimum inhibitory concentration (MIC).

[3] = test system: human monocytic cell line THP-1 (ATCC56 TIB202); test: Cytotoxicity assay in THP-1 cells; type: cell-based; conditions: toxicity/activity index: ratio LC50 (THP-1) / MIC (M. tuberculosis H37Rv)
Source text: as §1, §2

[4] = Chemical stability in phosphate buffer pH 7.4
[5] = Stability in human plasma (enzymatic hydrolysis)
Procedure: The studies of stability in human plasma were performed in human plasma diluted to 80% with phosphate buffer pH 7.4 of total concentration 0.05 M and ionic strength 0.15 M at 37°C. […] Study of enzymatic hydrolysis. […] Initial substrate concentration (ester) - 5×10^-4M with 2% ACN.
Pooled human plasma (960 µL), pH 7.4 phosphate buffered saline (216 µL), 18 µL ACN and 6 µL of a 10-1 M stock solution of the prodrug in ACN were mixed in a 2mL vial. The suspensions were incubated at 37 °C and 50 µL aliquots were removed, mixed with 450 µL of ACN: ZnSO4 1% 1:1 and centrifuged. The supernatant was removed and analysed by HPLC, the remaining substrate and the correspondent acid measured.
Two HPLC systems were used. The buffer and plasma stability studies were performed in an HPLC system with a photodiode detector L-3000 Photo Diode Array Detector, Merck-Hitachi L-6000 pump, Merck-Hitachi D-2500 integrator, and Merck RP-8 column. […] The eluant was a mixture of acetonitrile (60%/70%) and aqueous phosphate buffer with 5% of KH2PO4/H3PO4 0.025M (40%/30%). The flow rate was always 1 mL/1 min and wavelength was set at 230 nm. All quantifications were evaluated using calibration curves from stock solutions.
The initial substrate concentration was 5 x 10^-4 M in all stability assays. All incubations were carried out at pH 7.4 and 37 °C under agitation using the phosphate buffer described above as diluting agent. […] Acetonitrile (2%) was used in all studies to ensure adequate solubilization of the substrates. The benzoates were added from 10 to 1M acetonitrile stock solutions. After incubation, aliquots of 50 µL were taken into vials containing 450 µL of a 1:1 solution of 1% zinc sulfate and acetonitrile, mixed in a vortex and centrifuged for 10 min at 15,000 rpm. The supernatant was then injected into the HPLC and analysed for quantification of benzoic acid and remaining benzoate. All quantifications were performed using calibration curves.

[6] = test system: Mycobacterium smegmatis homogenate; test: Stability in Mycobacterium smegmatis homogenate (enzymatic hydrolysis); conditions: Mycobacterium smegmatis homogenate, 37°C
[7] = test system: Mycobacterium Bovis BCG infecting human macrophages THP-1; type: cell-based
[8] = M. tuberculosis H37Rv, Table 3, read-out: MBC
[9] = M. tuberculosis H37Rv, Tables 3, 6 and 7, read-out: MIC
[10] = THP-1 monocytic cells, lethal concentration for 50% of the cell population
[11] = n/d (no toxicity at maximum tested dose)

| SMILES | MBC [1, 8] | MIC [1, 9] | CC50 [2, 10] | T/A [3] | Degradation (%) 24h [4] | Degradation (%) 48h [4] | Degradation (%) 72h [4] | Degradation (%) 168h [4] | Degradation (%) 332h [4] | Degradation (%) 24h [5] | Degradation (%) 48h [5] | Degradation (%) 72h [5] | Degradation (%) 24h [6] | Degradation (%) 48h [6] | MBC [1] | MIC [1] | other results |
| --- | --- | --- | --- | --- | --- | --- | --- | --- | --- | --- | --- | --- | --- | --- | --- | --- | --- |
| CCCCCCCCNC(=O)c1cc([N+](=O)[O-])cc(C(F)(F)F)c1 [Compound 8c, N-octyl-3-nitro-5-(trifluoromethyl)-benzamide] | 0.063 µg/mL (≈ 0.182 µM) | 0.063 µg/mL (≈ 0.182 µM) | 14 µg/mL (≈ 40.4 µM) | 222 | 0% | 0% | 0% | 0% | 0% | 0% | 0% | 0% | 5% | 11% |  |  |  |
| CCCCCCNC(=O)c1ccccc1 [Compound 5b, N-hexyl-benzamide] | 64 µg/mL (≈ 312 µM) | 64 µg/mL (≈ 312 µM) |  |  |  |  |  |  |  |  |  |  | 1% | 2% |  |  |  |
| CCCCCCCCCCNC(=O)c1cc([N+](=O)[O-])cc(C(F)(F)F)c1 [Compound 8d, N-decyl-3-nitro-5-(trifluoromethyl)-benzamide] | 0.5 µg/mL (≈ 1.34 µM) | 0.5 µg/mL (≈ 1.34 µM) | 53 µg/mL (≈ 142 µM) | 106 |  |  |  |  |  |  |  |  | 2% | 3% |  |  |  |
| CCCCCCCCCCCCCCOC(=O)c1cc([N+](=O)[O-])cc([N+](=O)[O-])c1 [Compound 3f] |  |  |  |  |  |  |  |  |  | 23% | 51% | 65% | 3% | 6% | > 1020 µg/mL | 16 µg/mL (≈ 39.2 µM) | CFU x10^4 ([7]; Time 0 days, compound concentration 2 µg/ml): 9.2 CFUs per mL; CFU x10^4 ([7]; Time 1 day, compound concentration 2 µg/ml): 12.16 CFUs per mL; CFU x10^4 ([7]; Time 3 days, compound concentration 2 µg/ml): 13.66 CFUs per mL; CFU x10^4 ([7]; Time 7 days, compound concentration 2 µg/ml): 7.25 CFUs per mL; CC50 [2, 11]: > 512 µg/mL |
| CCCCCCCCCCCCOC(=O)c1cc([N+](=O)[O-])cc(C(F)(F)F)c1 [Compound 4e, Dodecyl 3-nitro-5-(trifluoromethyl)benzoate] | > 1020 µg/mL | > 1020 µg/mL |  |  | 1% | 2% | 3% | 6% | 11% | 1% | 2% | 3% | 3% | 6% |  |  | CC50 ([2]; THP-1 monocytic cells, n/d (no toxicity at maximum tested dose)): > 512 µg/mL |
| CCCCCCNC(=O)c1cc([N+](=O)[O-])cc(C(F)(F)F)c1 [Compound 8b, N-hexyl-3-nitro-5-(trifluoromethyl)-benzamide] | ≤ 0.5 µg/mL | ≤ 0.5 µg/mL | 23 µg/mL (≈ 72.3 µM) | 46 |  |  |  |  |  |  |  |  | 7% | 14% |  |  |  |
| CCCCCCCCOC(=O)c1cc([N+](=O)[O-])cc([N+](=O)[O-])c1 [Compound 3c] |  |  |  |  | 0% | 0% | 1% | 2% | 3% | 57% | 81% | 92% | 10% | 19% | 8 µg/mL (≈ 24.7 µM) | 8 µg/mL (≈ 24.7 µM) |  |
| NNC(=O)c1ccncc1 [INH, isoniazid, reference compound] | 0.05 µg/mL (≈ 0.365 µM) | 0.025 µg/mL (≈ 0.182 µM) |  |  |  |  |  |  |  |  |  |  |  |  |  |  | CFU x10^4 ([7]; Time 0 days, concentration 0.1 µg/ml): 9.2 CFUs per mL; CFU x10^4 ([7]; Time 1 day, concentration 0.1 µg/ml): 9.91 CFUs per mL; CFU x10^4 ([7]; Time 3 days, concentration 0.1 µg/ml): 1.33 CFUs per mL; CFU x10^4 ([7]; Time 7 days, concentration 0.1 µg/ml): 0.24 CFUs per mL |
| CCCCCCCCOC(=O)c1cc([N+](=O)[O-])cc(C(F)(F)F)c1 [Compound 4c, Octyl 3-nitro-5-(trifluoromethyl)benzoate] |  |  |  |  | 0% | 1% | 1% | 3% | 6% | 42% | 67% | 81% | 8% | 16% |  |  |  |
| CCCCCCCCCCCCOC(=O)c1cc([N+](=O)[O-])cc([N+](=O)[O-])c1 [Compound 3e] |  |  |  |  | 0% | 0% | 1% | 1% | 2% | 29% | 50% | 65% | 4% | 8% | 16 µg/mL (≈ 42.1 µM) | 8 µg/mL (≈ 21 µM) | CC50 [2, 11]: > 512 µg/mL |
